Experimental data published in patent US20130052213A1, “NOVEL IMMUNOMODULATORY PEPTIDE” (Novozymes A/S, priority 2011, published 2013).
No end group written: not given here.

Key:
[1] = test system: TNF; assay: TNF production from LPS-stimulated PBMC (cytometric bead array); assay type: cell-based, human; details: for TNF production (FIG. 2): human PBMCs stimulated with LPS 0.6 or 20 ng/ml, hBD2 100, 10 or 1 pg/ml, 24 hours
Protocol: (§1) Peripheral blood was drawn from healthy volunteers (with approval from the relevant ethical committee in Denmark). Heparinized blood was diluted 1/1 v/v with RPMI and were subjected to Ficoll density centrifugation within 2 h of drawing. Plasma was collected from the top from individual donors and was kept on ice until it was used at 2% in the culture medium (autologous culture medium). Isolated PBMC were resuspended in autologous culture medium and seeded in 96-well culture plates with 255.000 cells per well in a total of 200 μl. PBMC from the same donor were stimulated with 100, 10 or 1 pg/ml of hBD2 (either full-length or cleaved) either alone or together with LPS at 0.6 ng/ml or 20 ng/ml (E. coli, O111:B4, Sigma L4391), as a control on down-regulation of inflammatory cytokines 3.5 ng/ml Dexamethason (Sigma D8893) and 1 μg/ml Infliximab (Centocur B. V., NCI039843LA) was included. The concentrations of these compounds were based on initial titration studies, where the highest possible concentration without effect of viability was used. The supernatants were collected after incubation at 37° C. for 24 hours, and stored at −80° C.° until cytokine measurement. Viability was measured by Alamar Blue (Biosource, DALL 1100) to be sure that anti-inflammatory effects were not due to toxicity. TNF and IL-10 production in supernatants was measured by flow cytometry with a human inflammation cytometric bead array (CBA) according to manufacturer's instructions (BDBioSciences) on a FACSarray flow cytometer (BDBiosciences). All experiments were performed at least twice on several donors, with representative results shown. The data presented are expressed as mean plus/minus standard deviation (SD). Statistical significance was determined by 2-way ANOVA with the variables being treatment (hBD2, dexamethazone, etc.) and stimulation (LPS) followed by Bonferroni post-test as reported in the table legends. Differences were considered significant for p<0.05.

[2] = test system: IL-10; assay: IL-10 production from LPS-stimulated PBMC (cytometric bead array); assay type: cell-based; details: human PBMCs stimulated with LPS 0.6 or 20 ng/ml; hBD2 100, 10 or 1 pg/ml; Dexamethason 3.5 ng/ml; Infliximab 1 μg/ml; 24 hours
Protocol: as §1, with “toxicity.” for “toxicity. TNF and IL-10 production in supernatants was measured by flow cytometry with a human inflammation cytometric bead array (CBA) according to manufacturer's instructions (BDBioSciences) on a FACSarray flow cytometer (BDBiosciences). All experiments were performed at least twice on several donors, with representative results shown. The data presented are expressed as mean plus/minus standard deviation (SD). Statistical significance was determined by 2-way ANOVA with the variables being treatment (hBD2, dexamethazone, etc.) and stimulation (LPS) followed by Bonferroni post-test as reported in the table legends. Differences were considered significant for p<0.05.”
TNF and IL-10 production in supernatants was measured by flow cytometry with a human inflammation cytometric bead array (CBA) according to manufacturer's instructions (BDBioSciences) on a FACSarray flow cytometer (BDBiosciences).
All experiments were performed at least twice on several donors, with representative results shown. The data presented are expressed as mean plus/minus standard deviation (SD). Statistical significance was determined by 2-way ANOVA with the variables being treatment (hBD2, dexamethazone, etc.) and stimulation (LPS) followed by Bonferroni post-test as reported in the table legends. Differences were considered significant for p<0.05.

[3] = test system: rheumatoid arthritis; details: WO 2010/007168; cited from earlier work
[4] = test system: IL-10; details: human PBMCs stimulated with LPS or another TLR ligand; cited from earlier work
[5] = test system: TNF; details: human PBMCs stimulated with LPS or another TLR ligand; cited from earlier work

Substance	anti-inflammatory activity in vitro compared with full-length hBD2 (FIGS. 1 and 2) ([1]; human PBMC stimulated with LPS, TNF and IL-10 read-outs)	potency relative to full length hBD2 (FIG. 2) ([1]; human PBMC, TNF production, at some concentrations)	TNF production (FIG. 2) [1]	IL-10 production (FIG. 1) [2]	therapeutic potential in animal model of rheumatoid arthritis [3]	effect on IL-10, previously seen (WO 2010/007166) [4]	effect on TNF, previously seen (WO 2010/007166) [5]
PVTCLKSGAICHPVFCPRRYKQIGTCGLPGTKCCKKP [cleaved hBD2]	same anti-inflammatory activity in vitro as full-length hBD2	more potent than full length human beta-defensin 2	significantly reduced TNF production	significantly induced IL-10 production	–	–	–
Infliximab: anti-TNF antibody, control for anti-inflammatory effects	–	–	–	down-regulate IL-10	–	–	–
full-length hBD2: full length human beta defensin 2, produced recombinantly in E. coli (GIGDPVTCLKSGAICHPVFCPRRYKQIGTCGLPGTKCCKKP; ends and bridges not checked; cysteine pairing not given here; listed as Homo sapiens)	–	–	significantly reduced TNF production	significantly induced IL-10 production	has shown therapeutic potential	upregulation of IL-10	downregulation of TNF
